Source: ChEMBL document CHEMBL3860110, “First Structure-Activity Relationship of 17β-Hydroxysteroid Dehydrogenase Type 14 Nonsteroidal Inhibitors and Crystal Structures in Complex with the Enzyme” (J Med Chem, 2016)

Tests used:
[1] = biological target: T1, 17-beta-hydroxysteroid dehydrogenase 14 (Homo sapiens) (UniProt Q9BPX1); test: Inhibition of N-terminal 6His-tagged human HSD17B14 expressed in Escherichia coli BL21 (DE3) pLysS at 22.2 uM using E2 substrate and NAD+ incubated for 2 hrs using purified enzyme by fluorimetric assay
T1 sequence (whole entry): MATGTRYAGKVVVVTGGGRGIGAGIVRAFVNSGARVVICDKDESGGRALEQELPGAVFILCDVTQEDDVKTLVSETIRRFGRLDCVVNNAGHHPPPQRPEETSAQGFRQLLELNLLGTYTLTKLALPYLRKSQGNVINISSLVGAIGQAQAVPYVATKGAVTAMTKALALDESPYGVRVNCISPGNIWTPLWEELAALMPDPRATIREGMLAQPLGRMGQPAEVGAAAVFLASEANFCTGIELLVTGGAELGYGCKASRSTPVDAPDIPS

[2] = Dissociation constant, pKa of the compound at OH/C-ring; assay type: physicochemical
[3] = biological target: T2, 17-beta-hydroxysteroid dehydrogenase type 2 (Homo sapiens, UniProt P37059); test: Inhibition of purified human placental microsomal 17beta-HSD2 using [3H]-E2 substrate and NAD+ by HPLC based radioactive […] assay
T2 sequence (P37059 whole entry): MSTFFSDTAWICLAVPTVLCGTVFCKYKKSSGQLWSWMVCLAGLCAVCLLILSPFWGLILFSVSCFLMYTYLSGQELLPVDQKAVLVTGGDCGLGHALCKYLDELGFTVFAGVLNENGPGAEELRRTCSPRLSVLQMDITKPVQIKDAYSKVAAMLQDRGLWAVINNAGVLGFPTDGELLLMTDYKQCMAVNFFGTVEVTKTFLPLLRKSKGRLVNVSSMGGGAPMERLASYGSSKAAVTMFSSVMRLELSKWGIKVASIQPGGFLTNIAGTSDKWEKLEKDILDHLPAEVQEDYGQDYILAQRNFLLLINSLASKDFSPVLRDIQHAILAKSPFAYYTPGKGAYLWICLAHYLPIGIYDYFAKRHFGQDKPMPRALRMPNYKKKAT

Row | pKa [2] | Compound | also measured
1 |  | COc1ccc(-c2ccc(C(=O)c3ccc(F)c(OC)c3)nc2)cc1F | inhibition [1]: 57%
2 | 7.8 | O=C(c1ccc(F)c(O)c1)c1cccc(-c2ccc(O)c(F)c2)n1 | 
3 |  | Cc1cc(-c2ccc(C(=O)c3ccc(F)c(O)c3)cc2)ccc1O | IC50 [3]: 40 nM
4 | 8.8 | O=C(c1cccc(O)c1)c1cccc(-c2ccc(O)c(F)c2)n1 | 
